Where a name gives a salt, the structure may show the parent alone.
Test system: Human fungiform taste bud cells
Experiment: Assay for Taste Receptors (calcium fluorescence, FLIPR)
Type: cell-based
Settings: without polyquaternium-2
[1] = FIG. 5B, 0.5 mM 1,10-phenanthroline, 0.5 mM saccharin, 3% propylene glycol

| Compound | bitterness of the component itself [1] | bitterness of the component itself (FIG. 5C, 2 mM) |
| --- | --- | --- |
| CC(O)CO (stereo not drawn) [propylene glycol] | very bitter |  |
| O=C1CCCCCN1 [ε-Caprolactam] |  | only slightly bitter |
| Cc1ccccc1C(OCCN(C)C)c1ccccc1 (stereo not drawn) [orphenadrine hydrochloride] |  | most bitter component |
| c1cnc2c(c1)ccc1cccnc12 [1,10-phenanthroline] | very bitter |  |
| O=C1NS(=O)(=O)c2ccccc21 [saccharin] | very bitter |  |
| CNC(N)=S [N-methylthiourea] |  | only slightly bitter |
| N#C[C@H](O[C@@H]1O[C@H](CO[C@@H]2O[C@H](CO)[C@@H](O)[C@H](O)[C@H]2O)[C@@H](O)[C@H](O)[C@H]1O)c1ccccc1 [amygdalin] |  | only slightly bitter |
| N=C(NCCCCCCNC(=N)NC(=N)Nc1ccc(Cl)cc1)NC(=N)Nc1ccc(Cl)cc1 [chlorhesidice] |  | only slightly bitter |
| CCN(CC)CCNC(=O)c1ccc(N)cc1 [procainamide hydrochloride] |  | only slightly bitter |

— patent publication US9827320B2, “Compositions with reduced bitter taste perception” (The Procter & Gamble Company, priority 2014, dated 2017)
